Patent US9345682B2, “Inhibition of STAT3 signal transduction for human cancer therapy” (University of South Florida, priority 1999, dated 2016)
“Also recorded” adds a separate entry of the source.

Experiments:
[1] = set-up: species or system mice; details: mouse, in vivo
Experimental: FIG. 7: AG490 Blocks Tumorigenicity of Breast Carcinoma Cells. Nude mice are engrafted with MDA-MB-468 tumor cells, and then treated with AG490 by mini-pump infusion (42 mpk) and daily intraperitoneal injections (50 mpk).
AG490 is administered by continuous infusion using subcutaneous mini-pumps supplemented with intraperitoneal injections.

[2] = test system: Bcl-2; test: Bcl-2 expression (RT-PCR, Western blot) in U266 cells; assay type: cell-based, human; details: AG490
Experimental: Cells are lysed in a buffer composed of 50 mM Tris-Cl, pH 7.4, 5 mM EDTA, 150 mM NaCl, and 0.5% Triton-X 100 containing 1 mg/ml leupeptin and aprotinin, and 1 mM PMSF. Protein content of the cell lysates is quantified by the Bradford assay (Bio-Rad), and […] total protein is dissolved in Laemmli SDS-PAGE sample buffer prior to separation by 10% SDS-PAGE. Proteins are transferred to PVDF membrane and Western blot analysis is performed by standard techniques with ECL detection (Amersham). The Bcl-xL antibody, clone 124 (Dako), is used at a 1:2000 dilution. The Bcl-xL, antibody, clone S-18 (Santa Cruz Biotechnology), is used at a 1:500 dilution. Blots are quantified by densitometry and expression levels were normalized to b-actin (Sigma).
Total RNA is isolated by lysis in guanidine isothiocyanate followed by centrifugation through a cesium chloride gradient. cDNA is prepared from 200 ng of total RNA in a […] reaction with AMV-RT (Boehringer-Mannheim). […] Tem ml of PCR products are electrophoresed on a 5% acrylamide gel and quantified by phosphorimaging using ImageQuant software (Molecular Dynamics).

[3] = test system: MOPC tumors; test: MOPC myeloma tumor growth in vivo; set-up: species or system BALB/c mice
Experimental: (§1) Mice and tumor formation in vivo. Six- to eight-week old female BALB/c mice are obtained from the National Cancer Institute (Frederick, Md.). Cohorts of 3-5 mice per group are used for these experiments. Mice are shaved on the right flank and injected subcutaneously (s.c.) with 5×10^5 of either MOPC or MPC11 cells in […] of PBS to induce tumors.
(§2) In vivo treatment with AG-490 and IL-12. When tumors reach about 5 […] in diameter, AG-490 treatment of tumors is initiated and continued daily for 7-10 days. For MOPC tumors, injections of 0.85 mg/day of AG-490 are given intratumorally, supplemented with 0.5 mg/day of AG-490 i.p. For MPC11 tumors, the intratumoral treatment is halved while the i.p. dose remains the same. Control mice receive 50% DMSO vehicle alone in the same volume as the AG-490 treatment group. Recombinant IL-12 is given s.c. at either 100 ng or 200 ng every other day. Tumor growth is monitored daily by measuring two perpendicular tumor diameters with a caliper, and tumor volume was calculated according to the formula V=0.52*a*b(a+b)/2 (a=smallest superficial diameter; b=largest superficial diameter).

[4] = test system: MPC11 tumors; test: MPC11 myeloma tumor growth in vivo; set-up: species or system BALB/c mice
Experimental: as §1, §2

[5] = test system: peritoneal macrophages; test: Cytostatic activity of peritoneal macrophages against J558 myeloma cells; set-up: species or system mice; details: daily i.p. in vivo treatment
Experimental: Peritoneal macrophage preparation and cytostatic test. […] The peritoneal macrophage population is enriched by adhesion on plastic plates followed by washing and aspiration of non-adherent cells. The percentage of macrophages among adherent cells is estimated by morphological criteria using Giemsa staining (>95%). Antitumor cytostatic activity of macrophages is determined by inhibition of DNA synthesis of target tumor cells (J558 myeloma cells). Briefly, macrophage-sensitive J558 cells (2×10^4/well) are co-cultured for 48 hours with and without macrophages (2×10^5/well) prepared from individual mice. To estimate DNA synthesis, the cells are pulsed with ^3H-thymidine (^3H-TdR) ([…]) during the last 6 hours of incubation. ^3H-TdR incorporation is determined using a liquid scintillation b-counter (Pharmacia Wallac, Finland). Results are expressed as percentage of inhibition of ^3H-TdR incorporation by J558 cells incubated with macrophages compared to ^3H-TdR incorporation by J558 cells incubated in medium alone.

[6] = test system: IL-12-activated peritoneal macrophages; test: Viability of IL-12-activated peritoneal macrophages (MTT); assay type: cell-based, mice; details: 50 mM AG-490
Experimental: In vitro IL-12 activation and AG-490 treatment of macrophages. Peritoneal macrophages (2×10^5/well) are incubated in medium supplemented with either PBS, or rIL-12 (2 ng/ml), or AG-490 ([…]). Forty-eight hours later, the cultures are renewed by addition of fresh medium with either AG-490 or rIL-12 or PBS. Activation of macrophages is determined by nitric oxide production. Macrophage viability is determined by cleavage of tetrazolium salt in an MTT assay.

[7] = test system: myeloma cells with activated STAT3; test: In vitro apoptosis assay of murine myeloma cells; assay type: cell-based
Experimental: In vitro apoptosis assay. After a 24 hours incubation with LIMEM medium containing […] AG-490, cells are stained with Annexin V-PE and 7-Amino-actinomycin D (PharMingen, San Diego, Calif.). Dual-color fluorescence is measured on a FACScan flow cytometer and analyzed using CellQuest software (Becton Dickinson, Mountain View, Calif.).

## N#C/C(=C\c1ccc(O)c(O)c1)C(=O)NCc1ccccc1 [AG490]
[1]
  toxicity in animals: not detectably toxic
[2]
  expression of Bcl-2: no effect
[3]; 5-mm pre-existing MOPC tumors, AG-490 0.85 mg/day intratumorally plus 0.5 mg/day i.p.
  time to complete regression of all treated tumors: 3 to 8 days
[3]; MOPC tumors, AG-490 treated mice
  tumor regrowth after regression: tumor regrowth is observed in all of the AG-490 treated mice except for one
[4]; MPC11 tumors
  time to tumor regrowth or metastasis after termination of treatment: 4 to 7 days
[4]; pre-existing MPC11 tumors, all treated mice
  MPC11 tumor response: rapid rejection; also recorded: all of the tumors in AG-490-treated mice regressed
[5]
  IL-12-induced cytostatic activity of peritoneal macrophages against target tumor cells: does not influence
[6]
  cell death of IL-12-activated peritoneal macrophages: no cell death is detected
[7]
  apoptosis of myeloma cells: efficient apoptosis
